Results as given in US20250057840A1, “COMPOSITIONS AND METHODS FOR THE TREATMENT OF DISEASES WITH ISOCITRATE DEHYDROGENASE 1/2 MUTATIONS” (Fred Hutchison Cancer Center, priority 2023, published 2025).
Where two headings read alike, the source gives them in different places.

Columns and labels:
[1] = tested on: CCLP1 cells (IDH WT ICC); experiment: Survival curves in CCLP1; assay type: cell-based; settings: Homo sapiens, CC-LP-1, FIG. 1B
[2] = tested on: ICC2 cells (IDH WT ICC); experiment: cells; settings: Homo sapiens, read-out: Survival IC50
[3] = tested on: RBE cells (IDHm ICC); experiment: cells; settings: Homo sapiens, read-out: Survival IC50
[4] = tested on: RBE cells (IDHm ICC); experiment: MTT proliferation / cell viability assay in RBE; assay type: cell-based, human; settings: Homo sapiens, read-out: Proliferation IC50
Procedure: (§1) FIGS. 46A-46C are IC50 curves of IDH WT and mutant cells lines to S6K inhibitors. IDHm cells (SNU-1079 and RBE) and IDH WT cells (CCLP1 and HuCCT1) were treated with S6K inhibitors M2698 (FIG. 46A), PF-4708671 (FIG. 46B), and LY2584702 (FIG. 46C) for 7 days, and the cell viabilities were measured by MTT assay.

[5] = tested on: mTOR, ERK, and STAT3 survival pathways (pS6K, pS6) in IDH WT ICC cell lines (HuCCT1, CCLP1, ICC2); experiment: Western blot of survival pathways in IDH WT ICC cell lines; assay type: cell-based, human; settings: 6 hours of dasatinib treatment; three IDH WT ICC lines
Procedure: Protein Isolation and Western Blot. Protein lysates were prepared by lysing cells directly in NP-40 buffer supplemented with a protease inhibitor cocktail (Complete EDTA-free, Roche Applied Science), […] and phosphatase inhibitors (Phosphatase Inhibitor Cocktail Sets I and II, Calbiochem). Cells suspended in lysis buffer were sonicated for 10 seconds of active sonication, followed by 20 seconds of rest for 3 cycles at 20% amplitude. The lysate was then centrifuged at 14,000 rpm for 10 mins at 4° C. and the supernatant was harvested. A BCA protein assay kit (Pierce) was used to measure and normalize protein concentration. 30 μg of the cell lysate was run on a 4-20% gradient polyacrylamide gel with SDS (Biorad) and electroblotted onto polyvinylidene difluoride membranes (PVDF) (Millipore). Membranes were blocked in TBS-T with 5% non-fat milk and 0.1% Tween and probed with primary antibodies (Table 1). Horseradish-peroxidase-conjugated secondary antibodies (Vector Biolaboratories) were used to detect membrane-bound proteins. Blots were developed using Clarity Max Western ECL Blotting Substrate (Biorad). Signaling experiments are representative of at least two independent experiments.

[6] = tested on: ICC5 cells (IDHm ICC); experiment: cells; settings: Homo sapiens, read-out: Survival IC50
[7] = tested on: HuCCT1 cells (IDH WT ICC); experiment: MTT proliferation / cell viability assay in HuCCT1; assay type: cell-based, human; settings: Homo sapiens, HuCCT-1, read-out: Proliferation IC50
Procedure: as §1

[8] = tested on: HuCCT1 cells (IDH WT ICC); experiment: cells; settings: Homo sapiens, HuCCT-1, read-out: Survival IC50
[9] = tested on: SNU-1079 cells (IDHm ICC); experiment: cells; settings: Homo sapiens, read-out: Survival IC50
[10] = tested on: ICC5 cells (IDHm ICC); experiment: cells; settings: Homo sapiens, read-out: Proliferation IC50
Procedure: (§2) Proliferation Assays. Cells were plated in 96-well plates (1,000 cells/well) in culture medium. […] The cells were allowed to grow 5-7 days until control wells were confluent. Viable cells were quantified by adding MTT (M-6494; ThermoFisher Scientific) at a final concentration of 1 mg/mL for 3 hours at 37° C. 100 μL/well of DMSO was added to solubilize formazan crystals. Absorbance was read at 490 nm and normalized to DMSO control. For each experimental condition, duplicate wells were seeded, and data is represented as mean±SEM among three independent experiments.

[11] = tested on: ICC2 cells (IDH WT ICC); experiment: cells; settings: Homo sapiens, read-out: Proliferation IC50
Procedure: as §2

[12] = tested on: SNU-1079 cells (IDHm ICC); experiment: MTT proliferation / cell viability assay in SNU-1079; assay type: cell-based, human; settings: Homo sapiens, read-out: Proliferation IC50
Procedure: as §1

**Q.** With `Cc1nc(Nc2ncc(C(=O)Nc3c(C)cccc3Cl)s2)cc(N2CCN(CCO)CC2)n1` [dasatinib] as the compound, how does the IC50 [1] read?
**A.** The IC50 was 8040 nM.

**Q.** And the IC50 [2]?
**A.** The IC50 was 162 nM.

**Q.** And the IC50 [3]?
**A.** The IC50 was 4.1 nM.

**Q.** And the IC50 [4]?
**A.** Its IC50 is 2.75 nM.

**Q.** What about the “effect on pathways evaluated (S6K/S6, ERK, STAT3)” value [5] of the same compound?
**A.** The value was “no effect”.

**Q.** What about the IC50 [6] of the same compound?
**A.** Its IC50 is 41.7 nM.

**Q.** And the IC50 [7]?
**A.** The IC50 was 97.9 nM.

**Q.** And the IC50 [8]?
**A.** The IC50 was 977 nM.

**Q.** And the IC50 [9]?
**A.** Its IC50 is 22.6 nM.

**Q.** And the IC50 [10]?
**A.** The IC50 was 5.93 nM.

**Q.** What about the IC50 [11] of the same compound?
**A.** Its IC50 is 50.6 nM.

**Q.** And the IC50 [12]?
**A.** Its IC50 is 11.4 nM.
